PubChem BioAssay AID1902 (Broad Institute, 2009)
pEC50: −log10 of the molar value. Calls of active or inactive are those of the source.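 Rule for the calls: active = EC50 no more than a set limit of log units above the highest dose; inactive = the rest.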

Target: S. pyogenes SKKanGAS, kanamycin survival, BacTiterGlo, 6 h
Experiment: SKKanGAS survival reduction under kanamycin, dose response, streptokinase promoter inhibitor project, SKKanGAS strain, luminescence, dose confirmation (AID 1902);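 note: lower survival reflects blocked streptokinase promoter driving kanamycin resistance gene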

SMILES | EC50 | pEC50
CCC[N+]1(CC#CC2(O)CCCCC2)CCOCC1 | > 15000 nM (inactive) | 
Cn1c(O)c(N=NC(=O)c2cc(-c3cccs3)nc3ccccc23)c2ccccc21 |  | 5.59
Cc1nnc(-c2ccccc2)c(=O)n1/N=C/c1c(O)ccc2ccccc12 |  | 5.36
CC1(C)N=C(N)N=C(N)N1c1ccc(Oc2ccc(Cl)cc2)c(Cl)c1 |  | > 7.22
O=C(N/N=C/c1cc(Br)cc(Br)c1O)c1cccc(S(=O)(=O)N2CCOCC2)c1 |  | 5.93
Cc1cccc(-n2ncc3c2CCCC3NC(=O)CCN2Cc3ccccc3C2=O)c1C (stereo unspecified) | > 15000 nM (inactive) | 
Oc1ccc(Br)cc1/C=N/NC(=S)NCCc1ccccc1 |  | 5.71
CC1=NN(c2ccccc2)C(=O)/C1=C/c1c(O)n(-c2ccc(F)c(Cl)c2)[nH]c1=O |  | 5.44
CCC(=O)NC(=S)Nc1ccc(NC(=S)NC(=O)c2ccccc2)cc1 |  | 6.09
CC(C)c1ccc(-c2cc(C(=O)N3N=C(C(F)F)CC3(O)C(F)F)c3ccccc3n2)cc1 (stereo unspecified) |  | 5.51
O=C(N/N=C/c1cc([N+](=O)[O-])ccc1O)C(O)(c1ccccc1)c1ccccc1 |  | 5.21
O=[N+]([O-])c1c(NCCCO)cc(Sc2nc3ccccc3s2)c2nonc12 |  | 5.70
CC1=NN(c2nc3ccccc3[nH]2)C(=O)C1Cc1ccccc1 (stereo unspecified) |  | 6.29
CC(C)=CCCC1(C)C=Cc2c(ccc3c2[nH]c2cc(O)c(C)cc23)O1 (stereo unspecified) |  | 5.52
Cc1[nH]n(-c2cccc3ccccc23)c(=O)c1/C=N/NC(=O)c1cccc([N+](=O)[O-])c1 |  | 5.61
C/C(=N/Nc1nc(-c2ccccc2F)nc2ccccc12)c1ccccc1O |  | 5.08
Cc1cccc2[nH]c3c(N4CC=C(c5ccc(F)cc5)CC4)ncnc3c12 |  | 5.67
Cc1ccc(/C=C/C(=O)C2C(=O)c3ccccc3C2=O)cc1 |  | 5.79
O=[N+]([O-])c1cccnc1N1CCC(c2cc(-c3ccc(Cl)cc3)n[nH]2)CC1 |  | 5.53
COc1cc(/C=C2\SC(=Nc3ccccc3)N(CCc3c[nH]c4ccccc34)C2=O)ccc1OC(C)C(=O)O (stereo unspecified) |  | 5.85
CCN1/C(=C/c2ccc3cc(C)ccc3[n+]2CC)Sc2ccc3sccc3c21 |  | 5.63

SMILES | EC50 | pEC50
O=C(COC(=O)c1ccccc1)Nc1ccccc1Sc1ccccc1 |  | 5.05
O=C(NC(c1ccccc1)c1cc(Cl)c2cccnc2c1O)c1cccnc1 (stereo unspecified) |  | 5.86
COc1ccccc1N=Nc1nc(-c2ccccc2)c(-c2ccccc2)[nH]1 |  | 5.86
CCc1ccc(/C=C2\SC(=S)N(CCCC(=O)Nc3ccccc3C(=O)O)C2=O)cc1 |  | 5.47
O=C(Cc1csc(NC(=O)Nc2cccc(Cl)c2)n1)NCc1cccnc1 |  | 5.36
CC(C)OC(=O)c1c2nc3ccccc3nc2n2c1[nH]c(=O)c1ccccc12 |  | 6.04
COc1cc(C(=O)NNC(=S)NC(=O)c2ccc(Cl)cc2)cc(OC)c1OC |  | 6.30
Oc1c(N=NC(=S)Nc2ccccc2F)c2ccccc2n1Cc1cccc(Cl)c1 |  | 6.18
Cc1ccc(Cl)cc1N1CCN(C(=O)c2cccc3c(=O)c(C)c(-c4ccccc4)oc23)CC1 |  | 5.40
Cc1csc(NC(=O)c2c(O)c3c(n(CC(C)C)c2=O)CCCC3)n1 |  | 4.96
CCN(CC(=O)NC(C)(C)C)C(=O)COc1c(Cl)cc(Cl)c2ccc(C)nc12 |  | 6.30
O=[N+]([O-])c1ccc(O)c(/C=N/Nc2ccc(Cl)nn2)c1 |  | 6.60
O=C(O)c1ccc(N/N=C/c2ccc(-c3ccc(Br)cc3)o2)cc1 |  | 5.63
CN(C)CCCNC(=S)NCC(c1ccc(Cl)cc1Cl)c1c[nH]c2ccccc12 (stereo unspecified) |  | 5.14
O=C(NC12CC3CC(CC(C3)C1)C2)c1ccc([N+](=O)[O-])o1 |  | 5.70
CCN(CC)c1ccc(C=N/C(C#N)=C(\N)C#N)cc1 | > 15000 nM (inactive) | 
CCOC(=O)c1cnc(-n2nc(C)cc2C)nc1Nc1ccc(OC)cc1 |  | 6.73
COC(=O)c1ccc2[nH]c3cccc(/C(=C/c4ccccc4)c4ccccc4)c3c2c1 |  | 5.95
COc1ccc(NC(=S)NC(NC(=O)c2ccc(Cl)cc2Cl)C(Cl)(Cl)Cl)c([N+](=O)[O-])c1 (stereo unspecified) |  | 5.94
O=c1[nH]c(-c2ccccn2)nc2sc(-c3ccccc3)cc12 |  | 6.58
